Test results published in patent US8871754B2, “Compounds and compositions for the treatment of parasitic diseases” (IRM LLC, priority 2012, dated 2014).
Read-outs that look alike come from different tables or passages of the source.

Test system: P. falciparum (NF54 or 3D7 strain) in infected human erythrocytes
Assay: Assay for P. falciparum proliferation in infected human blood cells (SYBR Green)
Type: cell-based
Settings: Plasmodium falciparum, Erythrocyte, read-out: EC50 (nM), inhibitory efficacy in delaying P. falciparum proliferation in infected human blood cells
Protocol: Assay for P. falciparum Proliferation in Infected Human Blood Cells
Compounds of the invention can be assayed to measure their capacity to inhibit proliferation of P. falciparum parasitemia in infected red blood cells. This parasite proliferation assay measures the increase in parasite DNA content using a DNA intercalating dye, SYBR Green® (INVITROGEN®) which has a high affinity for double stranded DNA.
NF54 or 3D7 P. falciparum strain is grown in complete culturing media until parasitemia reaches 3% to 8% with O+ human erythrocytes. […] 20 μl of screening media is dispensed into 384 well assay plates. 50 nl of compounds of the invention (in DMSO), including antimalarial controls (mefloquine, pyrimethamine and artemisinin), are then transferred into the assay plates, as well as DMSO alone to serve as a negative control for inhibition. Then 30 μl of a suspension of a NF54 or 3D7 P. falciparum infected erythrocytes in screening media is dispensed into the assay plates such that the final hematocrit is 2.5% with a final parasitemia of 0.3%. The plates are placed in a 37° C. incubator for 72 hours in a low oxygen environment containing 93% N2, 4% CO2, and 3% O2 gas mixture. 10 μl of lysis buffer (saponin, triton-X, EDTA) containing a 10× solution of SYBR Green I® in RPMI media is dispensed into the plates. The plates are lidded and kept at room temperature overnight for the lysis of the infected red blood cells. The fluorescence intensity is measured (excitation […], emission 530 nm) using the Envision™ system (Perkin Elmer). The percentage inhibition of 50%, […], is calculated for each compound.

[1] = NF54 or 3D7 strain, 72 hours, SYBR Green fluorescence

Question: CN(Cc1ccn2ncc(-c3ccc(C(F)(F)F)cc3)c2c1)c1ccc(F)cc1 [Example 2, 4-fluoro-N-methyl-N-((3-(4-(trifluoromethyl)phenyl)pyrazolo[1,5-a]pyridine-5-yl)methyl)aniline] was tested. Which EC50 [1] did it give?
Answer: 342 nM

Question: With CN(C(=O)c1ccn2ncc(-c3ccc(C(F)(F)F)cc3)c2c1)c1ccc(Cl)cc1 [Example 3, N-(4-chlorophenyl)-N-methyl-3-(4-(trifluoromethyl)phenyl)pyrazolo[1,5-a]pyridine-5-carboxamide] as the compound, how does the EC50 [1] read?
Answer: 94 nM

Question: How did the EC50 [1] turn out when CN(C(=O)c1ccn2ncc(-c3ccc(C(F)(F)F)cc3)c2c1)c1ccc(F)cc1 [Example 4, N-(4-fluorophenyl)-N-methyl-3-(4-(trifluoromethyl)phenyl)pyrazolo[1,5-a]pyridine-5-carboxamide] was run?
Answer: 46 nM

Question: Which EC50 [1] does the source give for Cc1ccc(N(C)C(=O)c2ccn3ncc(-c4ccc(C(F)(F)F)cc4)c3c2)nc1 [Example 5, N-methyl-N-(5-methylpyridin-2-yl)-3-(4-(trifluoromethyl)phenyl)pyrazolo[1,5-a]pyridine-5-carboxamide] here?
Answer: 88 nM

Question: For CN(Cc1ccn2ncc(-c3ccc(C(F)(F)F)cc3)c2c1)c1ccc(Cl)cc1 [Example 6, 4-chloro-N-methyl-N-((3-(4-(trifluoromethyl)phenyl)pyrazolo[1,5-a]pyridine-5-yl)methyl)aniline], which EC50 [1] is on record?
Answer: 284 nM

Question: With Cc1ccc(N(C)Cc2ccn3ncc(-c4ccc(C(F)(F)F)cc4)c3c2)nc1 [Example 7, N,5-dimethyl-N-((3-(4-(trifluoromethyl)phenyl)pyrazolo[1,5-a]101yridine-5-yl)methyl)pyridine-2-amine] as the compound, how does the EC50 [1] read?
Answer: 975 nM

Question: How did the EC50 [1] turn out when Fc1ccc(OCc2ccn3ncc(-c4ccc(C(F)(F)F)cc4)c3c2)cc1 [Example 8, 5-((4-fluorophenoxy)methyl)-3-(4-(trifluoromethyl)phenyl)pyrazolo[1,5-a]pyridine] was run?
Answer: 532 nM

Question: With COCCN(C(=O)c1ccn2ncc(-c3ccc(C(F)(F)F)cc3)c2c1)c1ccc(C#N)cc1 [Example 9, N-(4-cyanophenyl)-N-(2-methoxyethyl)-3-(4-(trifluoromethyl)phenyl)pyrazolo[1,5-a]pyridine-5-carboxamide] as the compound, how does the EC50 [1] read?
Answer: 6 nM

Question: With CN(C)CCN(C(=O)c1ccn2ncc(-c3ccc(C(F)(F)F)cc3)c2c1)c1ccc(C#N)cc1 [Example 10, N-(4-cyanophenyl)-N-(2-(dimethylamino)ethyl)-3-(4-(trifluoromethyl)phenyl)pyrazolo[1,5-a]pyridine-5-carboxamide] as the compound, how does the EC50 [1] read?
Answer: 7 nM

Question: N#Cc1ccc(N(CC2CCOCC2)C(=O)c2ccn3ncc(-c4ccc(C(F)(F)F)cc4)c3c2)cc1 [Example 11, N-(4-cyanophenyl)-N-((tetrahydro-2H-pyran-4-yl)methyl)-3-(4-(trifluoromethyl)phenyl)pyrazolo[1,5-a]pyridine-5-carboxamide] was tested. Which EC50 [1] did it give?
Answer: 6 nM

Question: For CS(=O)(=O)c1ccc(N(CC2CCOCC2)C(=O)c2ccn3ncc(-c4ccc(C(F)(F)F)cc4)c3c2)cc1 [Example 12, N-(4-(methylsulfonyl)phenyl)-N-((tetrahydro-2H-pyran-4-yl)methyl)-3-(4-(trifluoromethyl)phenyl)pyrazolo[1,5-a]pyridine-5-carboxamide], which EC50 [1] is on record?
Answer: 9 nM

Question: For Cc1cncc(N(C)C(=O)c2ccn3ncc(-c4ccc(C(F)(F)F)cc4)c3c2)c1 [Example 14, N-methyl-N-(5-methylpyridin-3-yl)-3-(4-(trifluoromethyl)phenyl)pyrazolo[1,5-a]pyridine-5-carboxamide], which EC50 [1] is on record?
Answer: 134 nM

Question: For Cc1ccc(OCc2ccn3ncc(-c4ccc(C(F)(F)F)cc4)c3c2)nc1 [Example 15, 5-(((5-methylpyridin-2-yl)oxy)methyl)-3-(4-(trifluoromethyl)phenyl)pyrazolo[1,5-a]pyridine], which EC50 [1] is on record?
Answer: 2320 nM

Question: Fc1ccc(CCc2ccn3ncc(-c4ccc(C(F)(F)F)cc4)c3c2)cc1 [Example 16, 5-(4-fluorophenethyl)-3-(4-(trifluoromethyl)phenyl)pyrazolo[1,5-a]pyridine] was tested. Which EC50 (72 h) did it give?
Answer: 477 nM

Question: Which EC50 [1] does the source give for CN(C(=O)c1ccn2ncc(-c3ccc4c(cnn4C)c3)c2c1)c1ccc(C#N)cc1 [Example 17, N-(4-cyanophenyl)-N-methyl-3-(1-methyl-1H-indazol-5-yl)pyrazolo[1,5-a]pyridine-5-carboxamide] here?
Answer: 3 nM

Question: How did the EC50 [1] turn out when CC(=O)Nc1ccc(-c2cnn3ccc(C(=O)N(C)c4ccc(C#N)cc4)cc23)cn1 [Example 18, 3-(6-acetamidopyridin-3-yl)-N-(4-cyanophenyl)-N-methylpyrazolo[1,5-a]pyridine-5-carboxamide] was run?
Answer: 3 nM

Question: Which EC50 [1] does the source give for Fc1ccc(SCc2ccn3ncc(-c4ccc(C(F)(F)F)cc4)c3c2)cc1 [Example 21, 5-(((4-fluorophenyl)thio)methyl)-3-(4-(trifluoromethyl)phenyl)pyrazolo[1,5-a]pyridine] here?
Answer: 472 nM

Question: How did the EC50 [1] turn out when [O-][S+](Cc1ccn2ncc(-c3ccc(C(F)(F)F)cc3)c2c1)c1ccc(F)cc1 (centres unmarked) [Example 22, 5-(((4-fluorophenyl)sulfinyl)methyl)-3-(4-(trifluoromethyl)phenyl)pyrazolo[1,5-a]pyridine] was run?
Answer: 25 nM

Question: Which EC50 [1] does the source give for CN(C(=O)c1ccn2ncc(-c3ccc(-c4ccn[nH]4)cc3)c2c1)c1ccc(C#N)cc1 [Example 23, 3-(4-(1H-pyrazol-5-yl)phenyl)-N-(4-cyanophenyl)-N-methylpyrazolo[1,5-a]pyridine-5-carboxamide] here?
Answer: 2 nM

Question: For CN(C(=O)c1ccn2ncc(-c3ccc(C(F)(F)F)cn3)c2c1)c1ccc(C#N)cc1 [Example 24, N-(4-cyanophenyl)-N-methyl-3-(5-(trifluoromethyl)109yridine-2-yl)pyrazolo[1,5-a]pyridine-5-carboxamide], which EC50 [1] is on record?
Answer: 10 nM

Question: For C[C@H](N)C(=O)Nc1ccc(-c2cnn3ccc(C(=O)N(C)c4ccc(C#N)cc4)cc23)cc1 [Example 26, (S)-3-(4-(2-aminopropanamido)phenyl)-N-(4-cyanophenyl)-N-methylpyrazolo[1,5-a]pyridine-5-carboxamide], which EC50 [1] is on record?
Answer: 22 nM

Question: Which EC50 [1] does the source give for CN(C(=O)c1ccc(F)cc1)c1ccn2ncc(-c3ccc(C(F)(F)F)cc3)c2c1 [Example 29, 4-fluoro-N-methyl-N-(3-(4-(trifluoromethyl)phenyl)pyrazolo[1,5-a]pyridine-5-yl)benzamide] here?
Answer: 150 nM

Question: CN(c1ccn2ncc(-c3ccc(C(F)(F)F)cc3)c2c1)S(=O)(=O)c1ccc(C#N)cc1 [Example 30, 4-cyano-N-methyl-N-(3-(4-(trifluoromethyl)phenyl)pyrazolo[1,5-a]pyridine-5-yl)benzenesulfonamide] was tested. Which EC50 [1] did it give?
Answer: 62 nM

Question: How did the EC50 [1] turn out when CN(c1ccn2ncc(-c3ccc(C(F)(F)F)cc3)c2c1)S(=O)(=O)c1ccc(F)cc1 [Example 31, 4-fluoro-N-methyl-N-(3-(4-(trifluoromethyl)phenyl)pyrazolo[1,5-a]pyridine-5-yl)benzenesulfonamide] was run?
Answer: 143 nM

Question: With CN(C(=O)c1ccn2ncc(-c3ccc(C(F)(F)F)cc3)c2c1)c1ccc(C(F)(F)F)cn1 [Example 33, N-methyl-3-(4-(trifluoromethyl)phenyl)-N-(5-(trifluoromethyl)pyridine-2-yl)pyrazolo[1,5-a]pyridine-5-carboxamide] as the compound, how does the EC50 [1] read?
Answer: 59 nM

Question: Fc1ccc(CNc2ccn3ncc(-c4ccc(C(F)(F)F)cc4)c3c2)cc1 [Example 35, N-(4-fluorobenzyl)-3-(4-(trifluoromethyl)phenyl)pyrazolo[1,5-a]pyridine-5-amine] was tested. Which EC50 [1] did it give?
Answer: 2040 nM

Question: Which EC50 [1] does the source give for CN(Cc1ccc(F)cc1)c1ccn2ncc(-c3ccc(C(F)(F)F)cc3)c2c1 [Example 36, N-(4-fluorobenzyl)-N-methyl-3-(4-(trifluoromethyl)phenyl)pyrazolo[1,5-a]pyridine-5-amine] here?
Answer: 390 nM

Question: With CN(C(=O)c1ccc(C(F)(F)F)nc1)c1ccn2ncc(-c3ccc(C(F)(F)F)cc3)c2c1 [Example 37, N-methyl-6-(trifluoromethyl)-N-(3-(4-(trifluoromethyl)phenyl)pyrazolo[1,5-a]pyridine-5-yl)nicotinamide] as the compound, how does the EC50 [1] read?
Answer: 121 nM

Question: For CN(C(=O)c1ccc(C(F)(F)F)cn1)c1ccn2ncc(-c3ccc(C(F)(F)F)cc3)c2c1 [Example 38, N-methyl-5-(trifluoromethyl)-N-(3-(4-(trifluoromethyl)phenyl)pyrazolo[1,5-a]pyridine-5-yl)picolinamide], which EC50 [1] is on record?
Answer: 179 nM

Question: Which EC50 [1] does the source give for N#Cc1ccc(C(=O)N(CC2CCOCC2)c2ccn3ncc(-c4ccc(C(F)(F)F)cc4)c3c2)cc1 [Example 39, 4-cyano-N-((tetrahydro-2H-pyran-4-yl)methyl)-N-(3-(4-(trifluoromethyl)phenyl)pyrazolo[1,5-a]pyridin-5-yl)benzamide] here?
Answer: 831 nM

Question: CN(C(=O)c1ccn2ncc(-c3ccc(N)cc3)c2c1)c1ccc(C#N)cc1 [Example 42, 3-(4-aminophenyl)-N-(4-cyanophenyl)-N-methylpyrazolo[1,5-a]pyridine-5-carboxamide] was tested. Which EC50 [1] did it give?
Answer: 18 nM

Question: Which EC50 [1] does the source give for CN(C(=O)c1ccn2ncc(-c3ccc(NC(=O)CN)cc3)c2c1)c1ccc(C#N)cc1 [Example 43, 3-(4-(2-aminoacetamido)phenyl)-N-(4-cyanophenyl)-N-methylpyrazolo[1,5-a]pyridine-5-carboxamide] here?
Answer: 9 nM
